System: Elongator complex protein 1 (ELPI, also referred to as IKBKAP)
Test: IKBKAP-HTRF assay (IKBKAP protein in lysates of FD patient-derived fibroblasts)
Assay type: cell-based, human
Settings: FD patient-derived fibroblasts GM04589, 48 hours, 7-point concentration curve
Experimental: The assay is used for the quantitative determination of Elongator complex protein 1 (ELPI, also referred to as IKBKAP) concentration in cell lysates using the HTRF® (Homogeneous Time-Resolved Fluorescence) technology. IKBKAP is detected in a sandwich HTRF assay by use of an anti-IKAP antibody labeled with a donor and an anti-IKAP antibody labeled with an acceptor.
Cells were thawed and incubated in DMEM-10% FBS for 72 hours. Cells were trypsinized, counted, and re-suspended to a concentration of 50,000 cells/ml in DMEM-10% FBS. A 199 μL aliquot of the cell suspensions were plated at 10,000 cells per well in a 96 well microtiter plate and incubated for 3 to 5 hours. […] Test compounds were serially diluted 3.16-fold in 100% DMSO to generate a 7-point concentration curve. A 1 μL aliquot of 200× compound solution was transferred to cell-containing wells, and cells were incubated for 48 hours in a cell culture incubator (37° C., 5% CO2, 100% relative humidity). Triplicate samples were set up for each compound concentration. After 48 hours, the supernatant was removed from the cells and 50 μL of the 1×LB4 lysis buffer, containing protease inhibitors, was added to the cells and incubated with shaking at room temperature for 1 hour. A 36 μL aliquot of this lysate was subsequently transferred to the 384-well plate containing 4 μL of the antibody solution (1:50 dilution of anti IKAP d2 and anti-IKAP K(9+8) in detection buffer). The 384-well plate was then centrifuged for 1 minute to bring the solutions to the bottom of the plate and incubated overnight at 4° C. Fluorescence for each well of the plate at 665 nm and 620 nm was measured was on the EnVision plate reader (Perkin Elmer). The ΔF for each sample is calculated by:
[formula] wherein Signal is the normalized fluorescence for each sample well and Blank is the average normalized average fluorescence for the Blank control wells.
The maximum fold increase (MFI) in IKBKAP protein abundance for compounds of Formula (I) or a form thereof relative to the vehicle control are provided in Table 1. MFI was calculated by dividing the ΔF value for each sample well by the sample ΔF for the vehicle control wells.
The EC2x for IKBKAP protein expression obtained from the 7-point concentration curve generated for each test compound according to the protocol in Biological Example 1 are also provided in Table 1. The term “EC2x for IKBKAP protein expression” is defined as the concentration of test compound that is effective in producing two times the amount of IKBKAP protein in a FD patient cell compared to the amount produced from the DMSO vehicle control.

| Structure (SMILES) | EC2x for IKBKAP protein expression (concentration producing two times the amount of IKBKAP protein vs DMSO vehicle control) | MFI (maximum fold increase in IKBKAP protein abundance relative to the vehicle control) |
| --- | --- | --- |
| Cl.Cn1c(C[C@@H](N)CO)c(F)c2c(NCc3ccco3)nc(Cl)nc21 [Cpd 39, (2R)-2-amino-3-(2-chloro-5-fluoro-4-{[(furan-2-yl)methyl]amino}-7-methyl-7H-pyrrolo[2,3-d]pyrimidin-6-yl)propan-1-ol hydrochloride] | **** (between >0.005 μM and ≤0.02 μM is indicated by four stars (****)) | ***** (>4.9 is indicated by five stars (*****)) |
| CC(C)[C@H](N)Cc1[nH]c2nc(Cl)nc(NCc3ccncc3)c2c1F.Cl.Cl [Cpd 15, 6-[(2R)-2-amino-3-methylbutyl]-2-chloro-5-fluoro-N-[(pyridin-4-yl)methyl]-7H-pyrrolo[2,3-d]pyrimidin-4-amine dihydrochloride] | *** (between >0.02 μM and ≤0.5 μM is indicated by three stars (***)) | **** (between >3.9 and ≤4.9 is indicated by four stars (****)) |
| CNCCc1cc2c(NCc3nccs3)nc(Cl)nc2[nH]1.Cl [Cpd 5, 2-chloro-6-[2-(methylamino)ethyl]-N-[(1,3-thiazol-2-yl)methyl]-7H-pyrrolo[2,3-d]pyrimidin-4-amine hydrochloride] | *** (between >0.02 μM and ≤0.5 μM is indicated by three stars (***)) | ***** (>4.9 is indicated by five stars (*****)) |
| COc1ccc(-n2c(C[C@H](C)N)c(F)c3c(NCc4cccs4)nc(Cl)nc32)cc1.Cl [Cpd 47, 6-[(2S)-2-aminopropyl]-2-chloro-5-fluoro-7-(4-methoxyphenyl)-N-[(thiophen-2-yl)methyl]-7H-pyrrolo[2,3-d]pyrimidin-4-amine hydrochloride] | * (An EC2x>1 μM is indicated by one star (*)) | * (An MFI≤1.9 is indicated by one star (*)) |
| C[C@H](N)Cc1[nH]c2nc(Cl)nc(NCc3ccccn3)c2c1F.Cl.Cl [Cpd 54, 6-[(2S)-2-aminopropyl]-2-chloro-5-fluoro-N-[(pyridin-2-yl)methyl]-7H-pyrrolo[2,3-d]pyrimidin-4-amine dihydrochloride] | *** (between >0.02 μM and ≤0.5 μM is indicated by three stars (***)) | ** (between >1.9 and ≤2.9 is indicated by two stars (**)) |
| C[C@@H](N)Cc1c(F)c2c(NCc3ccco3)nc(Cl)nc2n1C.Cl [Cpd 60, 6-[(2R)-2-aminopropyl]-2-chloro-5-fluoro-N-[(furan-2-yl)methyl]-7-methyl-7H-pyrrolo[2,3-d]pyrimidin-4-amine hydrochloride] | * (An EC2x>1 μM is indicated by one star (*)) | * (An MFI≤1.9 is indicated by one star (*)) |
| C[C@H](N)Cc1[nH]c2nc(Br)nc(NCc3ccco3)c2c1F [Cpd 62, 6-[(2S)-2-aminopropyl]-2-bromo-5-fluoro-N-[(furan-2-yl)methyl]-7H-pyrrolo[2,3-d]pyrimidin-4-amine] | **** (between >0.005 μM and ≤0.02 μM is indicated by four stars (****)) | ***** (>4.9 is indicated by five stars (*****)) |
| Cl.NCCc1cc2c(NCc3ccco3)nc(Cl)nc2[nH]1 [Cpd 8, 6-(2-aminoethyl)-2-chloro-N-[(furan-2-yl)methyl]-7H-pyrrolo[2,3-d]pyrimidin-4-amine hydrochloride] | *** (between >0.02 μM and ≤0.5 μM is indicated by three stars (***)) | *** (between >2.9 and ≤3.9 is indicated by three stars (***)) |
| C[C@H](N)Cc1[nH]c2nc(Cl)nc(NCc3ccco3)c2c1Cl.Cl [Cpd 13, 6-[(2S)-2-aminopropyl]-2,5-dichloro-N-[(furan-2-yl)methyl]-7H-pyrrolo[2,3-d]pyrimidin-4-amine hydrochloride] | ***** (≤0.005 μM is indicated by five stars (*****)) | ***** (>4.9 is indicated by five stars (*****)) |
| C[C@H](N)Cc1cc2c(NCc3ccco3)nc(Cl)nc2[nH]1 [Cpd 16, 6-[(2S)-2-aminopropyl]-2-chloro-N-[(furan-2-yl)methyl]-7H-pyrrolo[2,3-d]pyrimidin-4-amine] | **** (between >0.005 μM and ≤0.02 μM is indicated by four stars (****)) | **** (between >3.9 and ≤4.9 is indicated by four stars (****)) |
| CC[C@H](N)Cc1[nH]c2nc(Cl)nc(NCc3ccco3)c2c1F.Cl [Cpd 44, 6-[(2S)-2-aminobutyl]-2-chloro-5-fluoro-N-[(furan-2-yl)methyl]-7H-pyrrolo[2,3-d]pyrimidin-4-amine hydrochloride] | **** (between >0.005 μM and ≤0.02 μM is indicated by four stars (****)) | ***** (>4.9 is indicated by five stars (*****)) |
| C[C@H](N)Cc1cc2c(NCc3ccncc3)nc(Cl)nc2[nH]1 [Cpd 20, 6-[(2S)-2-aminopropyl]-2-chloro-N-[(pyridin-4-yl)methyl]-7H-pyrrolo[2,3-d]pyrimidin-4-amine] | *** (between >0.02 μM and ≤0.5 μM is indicated by three stars (***)) | ***** (>4.9 is indicated by five stars (*****)) |
| C[C@H](N)Cc1[nH]c2nc(Cl)nc(NCc3cccs3)c2c1F.Cl [Cpd 40, 6-[(2S)-2-aminopropyl]-2-chloro-5-fluoro-N-[(thiophen-2-yl)methyl]-7H-pyrrolo[2,3-d]pyrimidin-4-amine hydrochloride] | **** (between >0.005 μM and ≤0.02 μM is indicated by four stars (****)) | ***** (>4.9 is indicated by five stars (*****)) |
| C[C@H](N)Cc1c(F)c2c(NCc3ccncc3F)nc(Cl)nc2n1C.Cl.Cl [Cpd 41, 6-[(2S)-2-aminopropyl]-2-chloro-5-fluoro-N-[(3-fluoropyridin-4-yl)methyl]-7-methyl-7H-pyrrolo[2,3-d]pyrimidin-4-amine dihydrochloride] | *** (between >0.02 μM and ≤0.5 μM is indicated by three stars (***)) | ***** (>4.9 is indicated by five stars (*****)) |
| C[C@H](N)Cc1cc2c(NCc3ncco3)nc(Cl)nc2[nH]1.Cl [Cpd 27, 6-[(2S)-2-aminopropyl]-2-chloro-N-[(1,3-oxazol-2-yl)methyl]-7H-pyrrolo[2,3-d]pyrimidin-4-amine hydrochloride] | *** (between >0.02 μM and ≤0.5 μM is indicated by three stars (***)) | ***** (>4.9 is indicated by five stars (*****)) |
| CC(C)[C@H](N)Cc1cc2c(NCc3ccncc3)nc(Cl)nc2[nH]1.Cl.Cl [Cpd 12, 6-[(2R)-2-amino-3-methylbutyl]-2-chloro-N-[(pyridin-4-yl)methyl]-7H-pyrrolo[2,3-d]pyrimidin-4-amine dihydrochloride] | *** (between >0.02 μM and ≤0.5 μM is indicated by three stars (***)) | ***** (>4.9 is indicated by five stars (*****)) |
| C[C@H](N)Cc1[nH]c2nc(Cl)nc(NCc3ccccc3F)c2c1F.Cl [Cpd 52, 6-[(2S)-2-aminopropyl]-2-chloro-5-fluoro-N-[(2-fluorophenyl)methyl]-7H-pyrrolo[2,3-d]pyrimidin-4-amine hydrochloride] | *** (between >0.02 μM and ≤0.5 μM is indicated by three stars (***)) | **** (between >3.9 and ≤4.9 is indicated by four stars (****)) |

Source: US12398140B2, “Substituted pyrrolo [2,3-d]pyrimidines for treating familial dysautonomia” (PTC THERAPEUTICS, INC., priority 2019, dated 2025)
